The results in this text go back to patent US20260008862A1, “Bispecific Anti-BCMA x Anti-CD3 Antibodies and Uses Thereof” (Regeneron Pharmaceuticals, Inc., priority 2018, published 2026).

Read-outs that look alike come from different tables or passages of the source.

Series [1] relates to Jurkat/NFATLuc.3C7 cells + NCI-H929 cells. Description: Jurkat/NFATLuc reporter bioassay with NCI-H929 cells. The note with it: highest RLU / lowest RLU. Type of series: cell-based. The protocol: (§1) Activity of the anti-BCMA×anti-CD3 bispecific antibodies were assessed in a Jurkat/NFATLuc reporter bioassay utilizing several cell lines with varying levels of BCMA surface expression. The Jurkat cells were engineered to express an NFAT-luciferase reporter (Jurkat/NFATLuc.3C7), and 50,000 Jurkat reporter cells were combined with 50,000 BCMA positive (Daudi, MM1-S, NCI-H929, OPM-2, RPMI-8226, MOLP-8, or Raji) or BCMA negative (HEK293) cells in Thermo Nunclon delta 96 well white microwell plates (Thermo Scientific, Cat #136102) in 50 ul of assay media (RPMI media with 10% FBS and 1% P/S/G). Three-fold serial dilutions of the BCMA×CD3 bispecific antibodies (mAb25441 D or mAb25442D), or a bivalent anti-BCMA antibody (mAb21581) were immediately added in 50 μL of assay buffer. The plates were gently agitated and incubated in a 37° C., 5% CO2 incubator for 4-6 hours. NFAT-Luciferase activity was determined using Promega One-Glo (Cat #E6130) and a Perkin Elmer Envision plate reader. RLU were plotted in GraphPad Prism using a four-parameter logistic equation over a 12-point response curve to calculate EC50 values. […] The signal to noise (S:N) is determined by taking the ratio of the highest RLU on the curve to the lowest.

Series [2] concerns primary cynomolgus plasma cells (CD138+). Description: Autologous T cell-mediated killing of cynomolgus monkey plasma cells. The format is cell-based. The procedure: The specific killing of enriched CD138^+ human or cynomolgus monkey plasma cells by unstimulated autologous T cells was assessed by flow cytometry. Human or cynomolgus bone marrow aspirates and blood were provided within 24 hours of harvest. CD138^+ plasma cells were enriched from bone marrow by positive selection using the EasySep™ Human CD138^+ Positive Selection kit according to the manufacturer's instructions. PBMC from whole blood were isolated by density separation. PBMC were labeled with 1 μM of Vybrant™ CFDA-SE fluorescent tracking dye. […] At the end of the culture, surviving CD138^+ plasma cells were analyzed by flow cytometry, utilizing fixable LIVE/DEAD dye and plasma cell specific cell surface markers. Percent viability was normalized to control condition (plasma cells in the presence of PBMC only). T cell activation was assessed by flow cytometry. Activation is reported as the percentage of CD2^+/CD4^+ or CD2^+/CD8^+/CD16^− T cells expressing CD25. Percent T cell activation was normalized to control condition (plasma cells in the presence of PBMC only).

The subject of the next series is MC38/BCMA tumors. Description: Syngenic MC38/BCMA tumor model in CD3-humanized mice (Example 16). Type of series: in vivo, mouse. The protocol:
To determine the in vivo efficacy of anti-BCMA×anti-CD3 bispecific antibodies (Abs), a syngenic tumor study was performed in mice expressing human CD3. C57BL/6 mice that express human CD3deg in place of murine CD3deg (CD3-humanized mice) were subcutaneously implanted with either 0.5×10^6 B16 melanoma cells that have been engineered to express full-length human BCMA (B16/BCMA cells) or 1×10^6 MC38 colon carcinoma cells that have been engineered to express full-length human BCMA (MC38/BCMA). […] The mice were administered these Abs twice more on days 4 and 7 for a total of three doses, and tumor growth was assessed throughout the experiment.
Implantation and measurement of syngenic tumors: C57BL/6 mice that express human CD3deg in place of murine CD3deg (CD3-humanized mice) were subcutaneously implanted with either 0.5×10^6 B16F10 melanoma cells that have been engineered to express full-length human BCMA (B16/BCMA cells) or 1×10^6 MC38 colon carcinoma cells that have been engineered to express full-length human BCMA (MC38/BCMA). […] The mice were administered these Abs twice more on days 4 and 7 for a total of three doses, and tumor growth was assessed throughout the experiment.
Calculation of syngenic tumor growth and inhibition: In order to determine tumor volume by external caliper, the greatest longitudinal diameter (length in mm) and the greatest transverse diameter (width in mm) were determined. Tumor volumes based on caliper measurements were calculated by the formula: Volume (mm^3)=(length×width^2)/2.

Series [3] has as its target T1, surface BCMA on MM cell lines (Homo sapiens, UniProt Q02223).
T1 construct: human cell lines which express endogenous BCMA (e.g., NCI-H929, MOLP-8 or OMP-2); endogenous in cells; host or cells: multiple myeloma cell lines H929, Molp8, U266, MM1.S
T1 sequence (Q02223 1-184): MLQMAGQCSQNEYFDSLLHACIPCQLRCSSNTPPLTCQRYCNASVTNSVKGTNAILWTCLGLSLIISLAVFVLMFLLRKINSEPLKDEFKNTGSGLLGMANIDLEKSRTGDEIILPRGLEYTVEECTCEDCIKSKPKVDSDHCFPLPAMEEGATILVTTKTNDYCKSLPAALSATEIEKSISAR
Description: FACS surface BCMA after overnight incubation, MM cell lines overall. The format is cell-based. The note with it: 66.7 or 667 nM. The procedure:
Flow cytometric analysis was utilized to determine the impact of overnight incubation of multiple myeloma cell lines with anti-BCMA antibodies on the level of surface BCMA. […] After 18 hours, wells were washed with cold FACS wash (PBS+1% filtered FBS) and resuspended in 667 nM of the same anti-BCMA antibody in cold stain buffer (Miltenyi 130-091-221) for 30 minutes on ice. After incubation, the cells were washed twice with cold FACS wash (PBS+1% filtered FBS) and bound antibody was detected by incubating with the appropriate anti-human secondary antibody (anti-hIgG or anti-HIS) on ice for an additional 30-45 minutes. After incubation, cells were washed, re-suspended in 200 μL cold PBS containing 1% filtered FBS and analyzed by flow cytometry on a BD FACS Canto II. Fold increase in staining was calculated by dividing the MFI of stained cells previously incubated overnight in BCMA abs or DAPT by the MFI of stained cells that were incubated overnight in media only.

The subject of series [4] is Jurkat/NFATLuc.3C7 cells + MOLP-8 cells. Description: Jurkat/NFATLuc reporter bioassay with MOLP-8 cells. Type of series: cell-based. The conditions noted are these: highest RLU / lowest RLU. The procedure:
as §1

[5] abbreviates: Cynomolgus Monkey Donor 1 plasma cells, autologous T cells, maximum.

Consider “REGN5458: anti-BCMA×anti-CD3 bispecific antibody: BCMA HCVR of mAb21581 (SEQ 66), CD3 HCVR of mAb7221G (SEQ 90), common LCVR SEQ 82”, for which, in series [1], the “S:N” value came to 39. The “T Cell Activation (% CD25 Upregulation) CD4+ T cells % Activation” value in series [2] (setting [5]) amounted to 9%; in series [2] (Cynomolgus Monkey Donor 2 plasma cells, autologous T cells, maximum), 16%. In series [2] (setting [5]), the “T Cell Activation (% CD25 Upregulation) CD8+ T cells % Activation” value was 12%. Also, the EC50 is 22.4 nM in series [2] (Cynomolgus Monkey Donor 1 plasma cells, autologous T cells, read-out: T Cell Activation (% CD25 Upregulation) CD8+ T cells EC50); 1.31 nM in series [2] (Cynomolgus Monkey Donor 1 plasma cells, autologous primary cynomolgus T cells, E:T 10:1, 72 hours, read-out: Cytotoxic Kill EC50); approximately 18.1 nM in series [2] (Cynomolgus Monkey Donor 2 plasma cells, autologous T cells, read-out: T Cell Activation (% CD25 Upregulation) CD4+ T cells EC50); 28.1 nM in series [2] (cynomolgus donor 1, read-out: CD4+ T cell activation EC50); 22.4 nM in series [2] (cynomolgus donor 1, read-out: CD8+ T cell activation EC50); 1.31 nM in series [2] (cynomolgus donor 1, read-out: cytotoxicity EC50). Further, the EC50 was 18.1 nM in series [2] (cynomolgus donor 2, read-out: CD4+ T cell activation EC50) and 76.7 nM in series [2] (cynomolgus donor 2, read-out: CD8+ T cell activation EC50). Moreover, the “Cytotoxic Kill Max % Cytotoxicity” value is listed as 94% in series [2] (Cynomolgus Monkey Donor 1 plasma cells, autologous primary cynomolgus T cells, E:T 10:1, 72 hours) and 91% in series [2] (Cynomolgus Monkey Donor 2 plasma cells, autologous primary cynomolgus T cells, E:T 10:1, 72 hours). In addition, the entries for the “maximum percent T cell activation, CD4+ T cells” value in series [2] (cynomolgus donor 1) and in series [2] (cynomolgus donor 2) were 9% and 16%, respectively. Further, in series [2] (cynomolgus donor 1), the “maximum percent T cell activation, CD8+ T cells” value is recorded as 12%. Also, the maximum percent cytotoxicity worked out at 94% in series [2] (cynomolgus donor 1) and 91% in series [2] (cynomolgus donor 2). The “Average Tumor Size (mm3) ± SEM on Day 5” value in the series on MC38/BCMA tumors (MC38/BCMA Tumor, 0.04 mg/kg, Day 5) is 11.9 ± 2.9 mm3. In addition, the “Average Tumor Size (mm3) ± SEM on Day 10” value is reported as 66.7 ± 22.5 mm3 in the series with MC38/BCMA tumors (MC38/BCMA Tumor, 0.04 mg/kg) and 0.0 ± 0.0 mm3 in the series with MC38/BCMA tumors (MC38/BCMA Tumor, 0.4 mg/kg). Moreover, the “Average Tumor Size (mm3) ± SEM on Day 14” value came to 273.3 ± 115.3 mm3 in the series with MC38/BCMA tumors (MC38/BCMA Tumor, 0.04 mg/kg) and 2.9 ± 2.9 mm3 in the series with MC38/BCMA tumors (MC38/BCMA Tumor, 0.4 mg/kg). For the same substance, the “Average Tumor Size (mm3) ± SEM on Day 18” value was 641.5 ± 309.8 mm3 in the series with MC38/BCMA tumors (MC38/BCMA Tumor, 0.04 mg/kg) and 7.5 ± 7.5 mm3 in the series on MC38/BCMA tumors (MC38/BCMA Tumor, 0.4 mg/kg). The “tumor growth (in words)” value with MC38/BCMA tumors (MC38/BCMA, 0.4 or 0.04 mg/kg, three doses) was “suppress the growth of both tumor lines in a dose-dependent manner”. In addition, the “surface BCMA after overnight incubation (in words)” value in series [3] is “increased levels of surface BCMA”.

As to “REGN5459: anti-BCMA×anti-CD3 bispecific antibody: BCMA HCVR of mAb21581 (SEQ 66), CD3 HCVR of mAb7221G20 (SEQ 98), common LCVR SEQ 82”, the “S:N” value in series [4] was 31.
